The values that follow come from PMC3068608 (Journal of medicinal chemistry, 2011).

The target of experiment [1] is T1, human μ opioid receptor (Homo sapiens, UniProt P35372). The experiment can be described thus: [35S]GTPγS binding mediated by the μ opioid receptor, CHO membranes. Format: biochemical. The conditions noted are these: for pharmacological properties / IC50: μ receptor; for pharmacological properties: [35S]GTPγS; for IC50: inhibition of binding stimulated by 200 nM DAMGO. On the technique in general: GTPγS is a poorly hydrolysed GTP analogue; its binding reports G protein activation.

The target of experiment [2] is T2, human κ opioid receptor (Homo sapiens, UniProt P41145). The experiment in a line: [35S]GTPγS binding mediated by the κ opioid receptor, CHO membranes. Format: biochemical. To be noted: for Emax ± SEM (% maximal stimulation): κ receptor, [35S]GTPγS.
The target in experiment [3] is T2, human κ opioid receptor. The experiment can be described thus: Opioid receptor binding, [3H]U69,593, CHO cell membranes. The conditions noted are these: for Ki (nM) ± SEM [3H]U69,593 (κ): CHO membranes, human κ receptor, 25 °C; for Selectivity σ/κ: ratio of Ki values (δ over κ).
The target in experiment [4] is T1, human μ opioid receptor. The experiment in a line: Opioid receptor binding, [3H]DAMGO, CHO cell membranes. The conditions noted are these: for Ki (nM) ± SEM [3H]DAMGO (μ): CHO membranes, human μ receptor, 25 °C.
For experiment [5] the following is noted: acute and chronic treatment; ref [7]; cited from earlier work.
Experiment [6] addresses T1, human μ opioid receptor. To be noted: [35S]GTPγS, ref [5c],[10c]; cited from earlier work.
The target of experiment [7] is T2, human κ opioid receptor. To be noted: [35S]GTPγS, ref [5c],[10c]; cited from earlier work.
The target in experiment [8] is T3, human δ opioid receptor (Homo sapiens, UniProt P41143). To be noted: at 10 μM; ref [5c], [10c], [11]; cited from earlier work.
Experiment [9] deals with T2, human κ opioid receptor. The conditions noted are these: ratio of Ki values (δ over κ), literature compounds; ref [5c], [10c], [11]; cited from earlier work.
In experiment [10] the target is T3, human δ opioid receptor. The experiment in a line: Opioid receptor binding, [3H]naltrindole, CHO cell membranes.

“Also recorded” adds a separate entry of the source. Where two headings read alike, the source gives them in different places. Some results are limits rather than exact numbers.

T2 sequence (P41145 whole entry): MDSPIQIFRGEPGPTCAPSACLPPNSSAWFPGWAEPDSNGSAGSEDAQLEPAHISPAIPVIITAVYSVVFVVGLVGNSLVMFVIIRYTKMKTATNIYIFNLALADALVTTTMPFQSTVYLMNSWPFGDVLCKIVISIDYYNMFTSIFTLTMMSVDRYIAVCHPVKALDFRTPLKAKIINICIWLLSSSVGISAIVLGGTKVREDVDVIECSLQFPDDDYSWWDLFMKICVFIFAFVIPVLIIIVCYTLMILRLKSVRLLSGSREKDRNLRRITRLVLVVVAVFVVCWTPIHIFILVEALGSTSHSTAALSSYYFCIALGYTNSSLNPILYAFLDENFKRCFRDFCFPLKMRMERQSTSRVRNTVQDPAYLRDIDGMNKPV
T1 sequence (P35372 whole entry): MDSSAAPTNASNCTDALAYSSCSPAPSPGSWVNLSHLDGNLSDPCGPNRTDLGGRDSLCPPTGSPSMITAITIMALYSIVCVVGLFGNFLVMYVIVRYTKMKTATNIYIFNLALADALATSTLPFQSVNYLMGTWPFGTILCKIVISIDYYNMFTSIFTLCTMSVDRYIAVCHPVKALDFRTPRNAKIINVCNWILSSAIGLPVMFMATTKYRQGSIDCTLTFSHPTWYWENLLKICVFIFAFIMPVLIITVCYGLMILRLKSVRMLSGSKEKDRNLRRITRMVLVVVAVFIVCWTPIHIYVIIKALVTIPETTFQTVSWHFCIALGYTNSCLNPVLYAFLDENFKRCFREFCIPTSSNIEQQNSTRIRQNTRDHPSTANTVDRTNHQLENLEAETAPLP
T3 sequence (P41143 whole entry): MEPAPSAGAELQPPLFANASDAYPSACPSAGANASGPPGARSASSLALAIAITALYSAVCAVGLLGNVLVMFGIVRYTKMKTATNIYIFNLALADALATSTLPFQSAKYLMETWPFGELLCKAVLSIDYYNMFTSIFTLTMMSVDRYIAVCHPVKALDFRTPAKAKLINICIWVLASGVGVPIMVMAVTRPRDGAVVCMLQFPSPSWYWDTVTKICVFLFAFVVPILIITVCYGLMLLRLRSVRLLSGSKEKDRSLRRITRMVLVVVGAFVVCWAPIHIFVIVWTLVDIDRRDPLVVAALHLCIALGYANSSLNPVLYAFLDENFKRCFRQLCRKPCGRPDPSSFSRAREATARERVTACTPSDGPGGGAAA

Consider `CNc1nc2cc3c(cc2s1)C[C@@H]1[C@@H]2CCCC[C@]32CCN1CC1CC1` [13a, N′-Methylaminothiazolo[5,4-b]-N-cyclopropylmethylmorphinan], for which the pharmacological properties result in experiment [1] is on record as “partial agonist activity; also recorded: partial agonists”.

Broadly, the EC50 is the concentration giving half of the maximal effect. Broadly, the IC50 is the concentration that inhibits the measured activity by half. Regarding `CNc1nc2cc3c(cc2s1)C[C@@H]1[C@@H]2CCCC[C@]32CCN1CCCF` [13c, N′-Methyl-aminothiazolo[5,4-b]-N-fluoropropylmorphinan], in experiment [1], a half-maximal effect (EC50) was put at 420 ± 17 nM, the pharmacological properties result is on record as “full agonist activity; also recorded: full agonists” and the IC50 was over 10000 nM. Moreover, in experiment [2], the EC50 amounted to 120 ± 6.7 nM and the “Emax ± SEM (% maximal stimulation)” value was “higher Emax than that of selective agonist U50,488”.

For the molecule `CCCNc1nc2cc3c(cc2s1)C[C@@H]1[C@@H]2CCCC[C@]32CCN1CCCF` [16c, N′-Propyl-aminothiazolo[5,4-b]-N-fluoropropylmorphinan], in experiment [3], the “Ki (nM) ± SEM [3H]U69,593 (κ)” value is recorded as “low affinity”. Further, in experiment [4], the “Ki (nM) ± SEM [3H]DAMGO (μ)” value is listed as “low affinity”.

For `CN(C)c1nc2cc3c(cc2s1)C[C@@H]1[C@@H]2CCCC[C@]32CCN1CC1CC1` [17a, N′, N′-Dimethyl-aminothiazolo[5,4-b]-N-cyclopropylmethylmorphinan], in [1], the pharmacological properties entry is recorded as “partial agonist activity”.

As for `CN(C)c1nc2cc3c(cc2s1)C[C@@H]1[C@@H]2CCCC[C@]32CCN1CCCF` [17c, N′, N′-Dimethyl-aminothiazolo[5,4-b]-N-fluoropropylmethylmorphinan], the “Ki (nM) ± SEM [3H]U69,593 (κ)” value in experiment [3] is “low affinity”. Moreover, the “Ki (nM) ± SEM [3H]DAMGO (μ)” value in [4] was “low affinity”.

In the case of `CCNc1nc2cc3c(cc2s1)C[C@@H]1[C@@H]2CCCC[C@]32CCN1CC1CC1` [19a, N′-Ethyl-aminothiazolo[5,4-b]-N-cyclopropylmethylmorphinan], in [1], the EC50 was determined as 29 ± 4.6 nM, the pharmacological properties result is recorded as “full agonist activity; also recorded: full agonists” and the IC50 is over 10000 nM. In addition, in [2], the midpoint of the response, the EC50, lay at 22 ± 5.1 nM and the “Emax ± SEM (% maximal stimulation)” value was “higher Emax than that of selective agonist U50,488”.

`CCNc1nc2cc3c(cc2s1)C[C@@H]1[C@@H]2CCCC[C@]32CCN1CCCF` [19c, N′-Ethyl-aminothiazolo[5,4-b]-N-fluoropropylmorphinan]: in [1], the pharmacological properties entry is given as “full agonist activity; also recorded: full agonists” and the IC50 is over 10000 nM. The “Emax ± SEM (% maximal stimulation)” value in [2] is listed as “higher Emax than that of selective agonist U50,488”.

On to `Oc1ccc2c(c1)[C@@]13CCCC[C@H]1[C@@H](C2)N(CC1CCC1)CC3` [butorphan], for which the cocaine self-administration entry in experiment [5] is recorded as “reduced cocaine self-administration dose-dependently”.

For `Oc1ccc2c(c1)[C@@]13CCCC[C@H]1[C@@H](C2)N(CC1CC1)CC3` [compound 1, cyclorphan, reference compound], in [6], the pharmacological properties entry is on record as “Partial agonist”. The cocaine self-administration result in experiment [5] is recorded as “reduced cocaine self-administration dose-dependently”. In addition, the “Emax ± SEM (% maximal stimulation)” value in experiment [7] was 90 ±10 % maximal stimulation.

Consider `Nc1nc2cc3c(cc2o1)[C@@]12CCCC[C@H]1[C@@H](C3)N(CC1CC1)CC2` [compound 4], for which, in [8], the “inhibition of [3H]Naltrindole (δ) binding” value was 18% inh at 10 μM. The “Selectivity σ/κ” value in [9] is reported as over 192.

Turning to `Nc1nc2cc3c(cc2s1)C[C@@H]1[C@@H]2CCCC[C@]32CCN1CCCF` [compound 11, Aminothiazolo[5,4-b]-N-fluoropropylmorphinan], in experiment [1], the pharmacological properties result is on record as “partial agonist activity”.

Regarding `Nc1nc2cc3c(cc2s1)C[C@@H]1[C@@H]2CCCC[C@]32CCN1C[C@@H]1CCCO1` [compound 12, Aminothiazolo[5,4-b]-N-(S)-tetrahydrofurylmethylmorphinan], in [1], the pharmacological properties entry was “full agonist activity; also recorded: full agonists” and the IC50 was over 10000 nM.

In the case of `FC(F)(F)CNc1nc2cc3c(cc2s1)C[C@@H]1[C@@H]2CCCC[C@]32CCN1CC1CC1` [compound 15, N′-Trifluoroethyl-aminothiazolo[5,4-b]-N-cyclopropylmethylmorphinan], in experiment [2], the “Emax ± SEM (% maximal stimulation)” value is “higher Emax than that of selective agonist U50,488”.

`c1ccc(Nc2nc3cc4c(cc3s2)C[C@@H]2[C@@H]3CCCC[C@]43CCN2CC2CC2)nc1` [compound 27, N′-(Pyridin-2-yl)-aminothiazolo[5,4-b]-N-cyclopropylmethylmorphinan]: the “Selectivity σ/κ” value in experiment [3] is over 110.

In general, Ki refers to the equilibrium dissociation constant of an inhibitor or competing ligand from its target. A low value points to higher affinity. Consider `c1c2c(cc3sc(N4CCNCC4)nc13)C[C@@H]1[C@@H]3CCCC[C@]23CCN1CC1CC1` [compound 28, N′-(Piperazin-1-yl)-thiazolo[5,4-b]-N-cyclopropylmethylmorphinan], for which the values for the Ki in experiment [10], in [3] and in [4] were over 10000 nM, 110 ± 16 nM and 2700 ± 320 nM, respectively. In addition, in experiment [3] (ratio of Ki values), the “Selectivity μ/κ” value is 25. Besides, the “Selectivity σ/κ” value in experiment [3] is over 91.
